Experimental data published in publication PMC10522591, “Natural product P57 induces hypothermia through targeting pyridoxal kinase” (Nature Communications, 2023).
Numbering of substitutions follows the chain as printed.

How the values were obtained:
pyridoxal kinase (PDXK) [1] = biological target: T1, pyridoxal kinase (PDXK) (Homo sapiens, UniProt O00764); assay: initial velocity kinetics, ATP varied at fixed PL; type: biochemical
T1 construct: wild-type full-length human PDXK, N-terminal His tag
T1 sequence (O00764 1-312): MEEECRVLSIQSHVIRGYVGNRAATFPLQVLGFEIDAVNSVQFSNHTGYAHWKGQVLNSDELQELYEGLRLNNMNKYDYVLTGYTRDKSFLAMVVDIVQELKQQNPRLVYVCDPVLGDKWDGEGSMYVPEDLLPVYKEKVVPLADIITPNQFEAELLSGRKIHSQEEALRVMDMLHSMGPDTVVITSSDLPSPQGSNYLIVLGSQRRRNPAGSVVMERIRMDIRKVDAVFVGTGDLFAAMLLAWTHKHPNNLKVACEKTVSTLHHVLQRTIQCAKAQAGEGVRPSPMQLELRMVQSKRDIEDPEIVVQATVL

pyridoxal kinase (PDXK) [2] = biological target: T1, pyridoxal kinase (PDXK); assay: SPR (Biacore T200); also MST Kd =[…], and enzyme inhibition with EC50 […]; type: binding
pyridoxal kinase (PDXK) [3] = biological target: T2, pyridoxal kinase (PDXK) (Mus musculus, UniProt Q8K183); assay: competition of P57-Bio ([…]) affinity pull-down by P57 ([…]), Western blot; type: cell-based
T2 construct: endogenous, mouse brain lysate
T2 sequence (Q8K183 1-312): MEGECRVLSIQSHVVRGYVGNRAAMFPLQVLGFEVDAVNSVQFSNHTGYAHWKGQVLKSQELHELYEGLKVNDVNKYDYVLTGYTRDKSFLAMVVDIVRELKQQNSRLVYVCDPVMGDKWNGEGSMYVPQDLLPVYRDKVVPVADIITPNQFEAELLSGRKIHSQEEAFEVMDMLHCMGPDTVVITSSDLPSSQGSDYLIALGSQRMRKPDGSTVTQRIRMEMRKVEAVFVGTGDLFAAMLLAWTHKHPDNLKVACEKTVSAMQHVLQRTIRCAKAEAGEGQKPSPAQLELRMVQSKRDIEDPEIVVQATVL

pyridoxal kinase (PDXK) [4] = biological target: T3, pyridoxal kinase (PDXK) (Homo sapiens, UniProt O00764, D235A); assay: inhibition of purified mutant enzyme (Fig. S5g); type: biochemical
T3 construct: full-length human PDXK D235A, N-terminal His tag
T3 sequence (O00764 1-312 D235A): T1 sequence (O00764 1-312) with D235A

Row | SMILES | initial velocity kinetics, ATP varied at fixed PL (pyridoxal kinase (PDXK) [1]) | Kd (pyridoxal kinase (PDXK) [2]) [µM] | competition of P57-Bio (2.0 μM) affinity pull-down by P57 (20.0 μM), Western blo (pyridoxal kinase (PDXK) [3]) | inhibition of purified mutant enzyme (Fig. S5g) (pyridoxal kinase (PDXK) [4])
1 | Nc1ncnc2c1ncn2[C@@H]1O[C@H](COP(=O)(O)OP(=O)(O)OP(=O)(O)O)[C@@H](O)[C@H]1O [ATP] | PL concentration was fixed and the concentrations of ATP were varied showed that both Km and Vmax values decreased |  |  | 
2 | C/C=C(\C)C(=O)O[C@@H]1C[C@H]2[C@@H](CC=C3C[C@@H](O[C@H]4C[C@H](OC)[C@H](O[C@H]5C[C@H](OC)[C@H](O[C@@H]6O[C@H](C)[C@@H](O)[C@H](OC)[C@H]6O)[C@@H](C)O5)[C@@H](C)O4)CC[C@@]32C)[C@@]2(O)CC[C@H](C(C)=O)[C@@]12C [P57] |  | 3.5 | immunoblotting showed GSTP1 and PDXK, but not neuromodulin, were sensitive to competition by excess P57 | the D235A mutation can reduce the binding stability to a certain extent, and partly reducing the inhibitory activity
